The target in assay [1] is T1, Nuclear receptor subfamily 0 group B member 1 (Homo sapiens, UniProt P51843).
T1 sequence (P51843 whole entry): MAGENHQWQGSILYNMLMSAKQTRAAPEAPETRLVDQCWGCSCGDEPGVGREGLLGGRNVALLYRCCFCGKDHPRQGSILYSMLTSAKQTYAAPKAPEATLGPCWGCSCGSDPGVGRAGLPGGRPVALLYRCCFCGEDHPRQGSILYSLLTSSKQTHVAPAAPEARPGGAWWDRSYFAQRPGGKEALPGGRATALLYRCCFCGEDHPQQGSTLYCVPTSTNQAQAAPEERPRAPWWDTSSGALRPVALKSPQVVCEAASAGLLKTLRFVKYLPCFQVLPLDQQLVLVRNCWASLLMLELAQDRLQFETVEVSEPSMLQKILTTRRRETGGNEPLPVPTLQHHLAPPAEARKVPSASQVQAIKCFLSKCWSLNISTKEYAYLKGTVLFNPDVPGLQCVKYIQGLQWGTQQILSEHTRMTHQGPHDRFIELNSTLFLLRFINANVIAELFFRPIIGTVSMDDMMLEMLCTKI
Put plainly: Luminescence-based cell-based high throughput dose response assay for inhibitors of the orphan nuclear receptor subfamily 0, group B, member 1 (DAX1; NR0B1). [Related pubchem assays (depositor defined):AID504766, AID504790]. It is filed as functional.

Assay [2] relates to HEK293. Put plainly: cells. The format is functional, cell-based. The settings on record: Homo sapiens.
The subject of assay [3] is HeLa. Put plainly: ATP-based viability loss in HeLa cells – cell-based, CellTiter-Glo luminescence, cherry-pick samples, cytotoxicity control for MITF activator project, dose response (AID 540259). The format is functional. The settings on record: Homo sapiens. A general note: Cellular ATP, detected with luciferase, serves as a proxy for viable cell number.
In assay [4] the test system is HEK293. Put plainly: EBV LMP1 TES2 canonical NF-kB signalling blockers – cell-based, HEK293, luciferase, cherry-pick, dose response (AID 588343). The format is functional. The settings on record: Homo sapiens.
Assay [5] can be described thus: reduction of Shn3 3'UTR-driven luciferase in osteoblasts – cell-based, Clone20 osteoblasts, firefly luciferase, cherry-picked, dose response (AID 624132).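 Note: firefly luciferase luminescence from reporter carrying the Shn3 3'UTR in osteoblasts.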 The format is functional.
The nature of assay [6]: cells. It is filed as functional, cell-based.
Assay [7] in a line: cells. The format is functional, cell-based. The source holds these as a separate data set.
The target of assay [8] is Heat shock protein HSP 90-alpha (Homo sapiens, UniProt P07900). It is filed as functional, organism-based.
The nature of assay [9]: loss of viability in HepG2 cells – cell-based, CellTiter-Glo, cherry-picked, cytotoxicity control for Shn3 inhibitor project, dose response (AID 624134). The format is functional.
Assay [10] addresses T2, Exodeoxyribonuclease V (Escherichia coli (strain K12), UniProt P04993+P07648+P08394).
T2 sequence (P04993 whole entry): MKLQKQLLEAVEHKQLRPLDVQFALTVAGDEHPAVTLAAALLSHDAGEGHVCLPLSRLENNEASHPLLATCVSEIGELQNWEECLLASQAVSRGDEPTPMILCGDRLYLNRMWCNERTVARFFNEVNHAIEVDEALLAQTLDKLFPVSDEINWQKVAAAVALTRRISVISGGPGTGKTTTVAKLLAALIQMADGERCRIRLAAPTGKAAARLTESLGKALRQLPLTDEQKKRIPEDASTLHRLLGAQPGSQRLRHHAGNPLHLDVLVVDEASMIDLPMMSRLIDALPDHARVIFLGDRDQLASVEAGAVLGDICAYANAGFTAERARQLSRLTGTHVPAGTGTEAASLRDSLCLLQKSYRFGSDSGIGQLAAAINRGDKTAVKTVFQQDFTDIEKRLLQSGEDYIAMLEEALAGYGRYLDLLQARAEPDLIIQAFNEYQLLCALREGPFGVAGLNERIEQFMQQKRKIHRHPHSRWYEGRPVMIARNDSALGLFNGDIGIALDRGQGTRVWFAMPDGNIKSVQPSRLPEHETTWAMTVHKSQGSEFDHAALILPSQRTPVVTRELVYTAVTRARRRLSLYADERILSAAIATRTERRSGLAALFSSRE
T2 sequence (P07648 whole entry): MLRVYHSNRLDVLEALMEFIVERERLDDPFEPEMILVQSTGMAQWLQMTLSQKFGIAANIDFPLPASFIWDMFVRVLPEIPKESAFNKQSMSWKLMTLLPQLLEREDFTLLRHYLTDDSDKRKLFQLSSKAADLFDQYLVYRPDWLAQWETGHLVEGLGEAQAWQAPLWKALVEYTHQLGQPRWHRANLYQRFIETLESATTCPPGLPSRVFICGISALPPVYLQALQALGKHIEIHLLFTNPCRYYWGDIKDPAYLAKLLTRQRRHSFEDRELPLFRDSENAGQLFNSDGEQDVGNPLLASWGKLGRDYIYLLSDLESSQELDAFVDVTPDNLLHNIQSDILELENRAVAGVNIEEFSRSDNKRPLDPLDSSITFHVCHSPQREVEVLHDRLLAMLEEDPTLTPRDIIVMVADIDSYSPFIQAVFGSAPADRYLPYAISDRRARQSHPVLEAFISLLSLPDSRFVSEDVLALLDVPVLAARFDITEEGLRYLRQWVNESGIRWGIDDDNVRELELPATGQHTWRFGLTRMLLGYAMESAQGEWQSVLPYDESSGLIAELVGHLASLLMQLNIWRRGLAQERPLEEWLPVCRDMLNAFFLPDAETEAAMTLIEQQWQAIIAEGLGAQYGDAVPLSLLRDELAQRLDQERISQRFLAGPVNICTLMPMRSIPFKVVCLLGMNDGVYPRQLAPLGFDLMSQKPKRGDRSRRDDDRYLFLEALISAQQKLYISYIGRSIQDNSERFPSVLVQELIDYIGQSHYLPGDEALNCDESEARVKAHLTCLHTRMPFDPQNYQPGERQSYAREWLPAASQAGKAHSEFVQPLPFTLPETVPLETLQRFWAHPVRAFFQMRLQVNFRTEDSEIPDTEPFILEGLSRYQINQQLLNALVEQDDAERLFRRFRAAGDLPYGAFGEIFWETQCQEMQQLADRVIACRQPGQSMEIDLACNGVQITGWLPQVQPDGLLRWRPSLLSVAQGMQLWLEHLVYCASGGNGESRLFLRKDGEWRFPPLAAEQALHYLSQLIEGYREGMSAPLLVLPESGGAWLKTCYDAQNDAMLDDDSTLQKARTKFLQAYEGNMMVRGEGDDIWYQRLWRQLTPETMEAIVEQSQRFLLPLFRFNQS
T2 sequence (P08394 whole entry): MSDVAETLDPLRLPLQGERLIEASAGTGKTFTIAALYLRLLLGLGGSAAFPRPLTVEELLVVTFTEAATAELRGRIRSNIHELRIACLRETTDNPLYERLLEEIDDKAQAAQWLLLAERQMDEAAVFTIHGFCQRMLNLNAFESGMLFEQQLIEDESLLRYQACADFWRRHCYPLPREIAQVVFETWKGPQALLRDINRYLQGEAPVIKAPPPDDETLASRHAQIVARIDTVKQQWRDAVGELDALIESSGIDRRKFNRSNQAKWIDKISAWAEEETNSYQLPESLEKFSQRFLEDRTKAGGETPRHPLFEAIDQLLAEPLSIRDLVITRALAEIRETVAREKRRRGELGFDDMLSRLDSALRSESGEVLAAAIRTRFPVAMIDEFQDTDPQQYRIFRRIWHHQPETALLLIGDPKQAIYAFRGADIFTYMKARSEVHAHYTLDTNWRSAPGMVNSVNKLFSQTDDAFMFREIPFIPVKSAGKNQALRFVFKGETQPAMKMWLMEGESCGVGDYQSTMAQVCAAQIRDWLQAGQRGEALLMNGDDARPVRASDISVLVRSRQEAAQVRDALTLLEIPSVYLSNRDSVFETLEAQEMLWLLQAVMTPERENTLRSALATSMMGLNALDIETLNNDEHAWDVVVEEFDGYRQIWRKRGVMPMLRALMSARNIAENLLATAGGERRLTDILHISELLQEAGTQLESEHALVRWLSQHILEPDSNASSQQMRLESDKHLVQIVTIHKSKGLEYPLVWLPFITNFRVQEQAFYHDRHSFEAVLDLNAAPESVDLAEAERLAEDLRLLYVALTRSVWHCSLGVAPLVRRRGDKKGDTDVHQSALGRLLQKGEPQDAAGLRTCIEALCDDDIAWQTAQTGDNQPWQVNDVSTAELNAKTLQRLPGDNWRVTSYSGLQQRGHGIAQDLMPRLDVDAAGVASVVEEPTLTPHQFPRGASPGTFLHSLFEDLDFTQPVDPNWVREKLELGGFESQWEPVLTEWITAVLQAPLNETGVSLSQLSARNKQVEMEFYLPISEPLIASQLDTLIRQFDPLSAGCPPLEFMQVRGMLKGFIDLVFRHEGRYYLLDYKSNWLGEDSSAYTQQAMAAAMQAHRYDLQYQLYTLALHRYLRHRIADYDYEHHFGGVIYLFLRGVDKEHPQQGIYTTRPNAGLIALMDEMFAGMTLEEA
Put plainly: RecBCD inhibition via phage-restricted bacterial growth – absorbance, V66 E. coli, mutant T4 phage, counter-screen for AddAB inhibitor project, dose response (AID 492957). It is filed as functional, cell-based, Escherichia coli str. K-12 substr. MG1655. (In general: A counterscreen serves to expose hits that act by an unwanted route or on another target.)

Assay [11] in a line: Counterscreen for AddAB inhibitors: absorbance-based bacterial cell-based high throughput dose response assay for inhibitors of bacterial viability. [Related pubchem assays (depositor defined):AID435030, AID449728, AID449731, AID488942, AID488955, AID488956]. It is filed as functional.
The nature of assay [12]: non-specific 3'UTR reporter inhibition in Clone20-Shn3RL – cell-based, Renilla luciferase, cherry-picked, counter-screen for Shn3 inhibitor project, dose response (AID 624133). It is filed as functional.
The target of assay [13] is Nuclear receptor subfamily 5 group A member 2 (Homo sapiens, UniProt O00482). The format is functional, cell-based.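 Note: HEK293T cells transfected with LRH-1 and a StAR promoter luciferase reporter; potency for inhibitors that lower LRH-1 driven reporter light.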
In assay [14] the target is Steroidogenic factor 1 (Homo sapiens, UniProt Q13285). Put plainly: Counterscreen for inverse agonists of the liver receptor homolog-1 (LRH-1; NR5A2): Luminescence-based cell-based high throughput dose response assay to identify inverse agonists of the Steroidogenic Factor 1 Nuclear Receptor (SF1; NR5A1). The format is functional.
The nature of assay [15]: THP-1 cell cytotoxicity, dose response, cytotoxicity control for non-replicating M. tuberculosis project (AID 489025). The format is functional.
Assay [16] in a line: cells. It is filed as functional.
Assay [17] in a line: Vero E6 cell cytotoxicity, dose response, cytotoxicity control for non-replicating M. tuberculosis project, secondary assay (AID 492998). As to conditions: Vero C1008. The format is functional, VeroE6.
Assay [18] is described as follows: nonselective StAR promoter luciferase inhibitors – cell-based, luminescence, luciferase reporter, counter-screen for LRH-1 inverse agonist project, dose response (AID 651969). The format is functional.
Assay [19] concerns the target T3, CAAX prenyl protease 2 (Homo sapiens, UniProt Q9Y256).
T3 sequence (Q9Y256 whole entry): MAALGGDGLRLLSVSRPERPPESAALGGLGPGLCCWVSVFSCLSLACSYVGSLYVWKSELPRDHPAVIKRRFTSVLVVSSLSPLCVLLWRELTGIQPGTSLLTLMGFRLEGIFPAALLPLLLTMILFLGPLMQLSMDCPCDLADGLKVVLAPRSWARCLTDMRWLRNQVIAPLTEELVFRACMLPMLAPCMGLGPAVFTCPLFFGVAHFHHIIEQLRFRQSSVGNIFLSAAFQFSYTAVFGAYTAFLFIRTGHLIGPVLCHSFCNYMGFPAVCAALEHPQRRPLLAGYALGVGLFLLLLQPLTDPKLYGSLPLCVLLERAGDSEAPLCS
As to the kind of experiment: inhibition of Ras-converting CAAX protease Rce1 – biochemical, yeast membranes, quenched-peptide fluorescence, cherry-pick, dose response (AID 588849).

Assay [20] addresses Voltage-gated inwardly rectifying potassium channel KCNH2 (Homo sapiens, UniProt Q12809). The settings on record: Potency.

The source made the active and inactive calls. A value given as a limit tells only on which side of the number the result lay.

Voltage-gated inwardly rectifying potassium channel KCNH2, sequence (Q12809 whole entry): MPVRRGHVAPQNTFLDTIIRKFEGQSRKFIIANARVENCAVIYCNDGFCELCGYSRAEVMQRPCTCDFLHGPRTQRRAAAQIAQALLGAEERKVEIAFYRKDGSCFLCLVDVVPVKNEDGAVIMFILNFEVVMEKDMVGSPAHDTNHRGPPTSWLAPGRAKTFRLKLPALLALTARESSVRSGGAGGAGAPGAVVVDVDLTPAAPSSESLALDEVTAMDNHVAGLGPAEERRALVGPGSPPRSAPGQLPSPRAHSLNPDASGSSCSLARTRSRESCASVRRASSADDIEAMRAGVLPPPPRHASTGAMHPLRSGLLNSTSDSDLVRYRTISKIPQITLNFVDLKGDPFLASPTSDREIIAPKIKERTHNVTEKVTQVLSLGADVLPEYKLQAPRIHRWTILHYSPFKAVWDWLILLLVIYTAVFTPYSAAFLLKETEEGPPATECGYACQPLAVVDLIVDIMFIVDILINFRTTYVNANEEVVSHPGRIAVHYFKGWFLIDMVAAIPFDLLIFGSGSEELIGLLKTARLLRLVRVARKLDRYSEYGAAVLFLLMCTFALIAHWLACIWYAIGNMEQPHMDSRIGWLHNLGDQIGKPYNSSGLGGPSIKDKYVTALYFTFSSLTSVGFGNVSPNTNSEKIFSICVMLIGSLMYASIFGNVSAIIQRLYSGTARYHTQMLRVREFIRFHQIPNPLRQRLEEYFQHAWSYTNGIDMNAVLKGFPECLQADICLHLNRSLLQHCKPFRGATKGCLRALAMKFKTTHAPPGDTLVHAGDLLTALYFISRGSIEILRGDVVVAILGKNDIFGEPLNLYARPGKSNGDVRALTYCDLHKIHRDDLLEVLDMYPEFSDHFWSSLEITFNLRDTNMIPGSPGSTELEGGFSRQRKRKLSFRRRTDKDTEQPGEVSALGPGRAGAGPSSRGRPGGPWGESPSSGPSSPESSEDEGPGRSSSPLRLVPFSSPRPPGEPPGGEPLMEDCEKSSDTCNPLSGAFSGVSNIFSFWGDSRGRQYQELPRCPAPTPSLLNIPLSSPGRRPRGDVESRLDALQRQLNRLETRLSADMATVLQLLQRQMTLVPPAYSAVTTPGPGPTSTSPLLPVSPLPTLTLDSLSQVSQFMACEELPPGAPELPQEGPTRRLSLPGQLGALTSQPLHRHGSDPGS
Steroidogenic factor 1, sequence (Q13285 whole entry): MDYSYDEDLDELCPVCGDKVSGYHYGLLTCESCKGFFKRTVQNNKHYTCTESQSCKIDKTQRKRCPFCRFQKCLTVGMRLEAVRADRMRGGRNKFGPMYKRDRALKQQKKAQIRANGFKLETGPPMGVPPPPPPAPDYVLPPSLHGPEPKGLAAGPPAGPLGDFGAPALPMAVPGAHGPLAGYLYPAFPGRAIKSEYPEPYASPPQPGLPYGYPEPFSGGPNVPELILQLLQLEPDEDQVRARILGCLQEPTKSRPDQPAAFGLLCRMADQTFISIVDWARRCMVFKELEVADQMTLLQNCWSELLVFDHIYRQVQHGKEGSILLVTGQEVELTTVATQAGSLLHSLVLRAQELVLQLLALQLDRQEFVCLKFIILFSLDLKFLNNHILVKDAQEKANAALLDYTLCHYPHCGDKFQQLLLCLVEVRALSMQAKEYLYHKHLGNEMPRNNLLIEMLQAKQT
Nuclear receptor subfamily 5 group A member 2, sequence (O00482 whole entry): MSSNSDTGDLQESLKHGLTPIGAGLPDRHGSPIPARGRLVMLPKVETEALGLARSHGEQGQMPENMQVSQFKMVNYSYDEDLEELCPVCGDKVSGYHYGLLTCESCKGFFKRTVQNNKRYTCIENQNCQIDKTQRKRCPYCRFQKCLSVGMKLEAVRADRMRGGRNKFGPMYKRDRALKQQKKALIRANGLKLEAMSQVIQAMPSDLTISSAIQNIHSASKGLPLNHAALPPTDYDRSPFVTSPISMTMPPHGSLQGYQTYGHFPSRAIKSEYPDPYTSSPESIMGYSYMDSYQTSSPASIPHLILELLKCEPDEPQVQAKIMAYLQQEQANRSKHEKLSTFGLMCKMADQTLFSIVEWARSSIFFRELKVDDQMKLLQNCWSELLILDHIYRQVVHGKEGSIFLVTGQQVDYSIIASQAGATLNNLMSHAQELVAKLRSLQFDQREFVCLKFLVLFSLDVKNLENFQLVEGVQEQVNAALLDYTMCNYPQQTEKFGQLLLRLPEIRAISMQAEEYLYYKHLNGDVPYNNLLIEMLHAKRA

On to `COC(=O)c1sc(=S)n(Cc2ccccc2)c1C`, for which the IC50 in assay [1] and in assay [2] was > 67.5 µM (inactive) in each case.

For `COc1ccc(NC2=Nc3ccccc3CC2)cc1`, the AC50 in assay [3] was > 350 µM (inactive).

Consider `CC(C)C(=O)NC(c1cccc([N+](=O)[O-])c1)c1ccc2cccnc2c1O` (centres undefined), for which the half-maximal activity concentration (AC50) in assay [4] was 6.46 µM (active); in assay [5] it was 2.57 µM (active); in assay [8] it was 2.7 µM (active); in [9] it was 2.17 µM (active); in assay [12] it was 0.924 µM (active). In addition, the EC50 in [6] was 6.78 µM (active); in assay [7], > 350 µM (not active). The IC50 in assay [10] and in assay [11] was > 119 µM (inactive) each time.

With `Cc1onc(-c2ccccc2)c1C(=O)ON=C(N)c1ccc([N+](=O)[O-])o1`, the IC50 was 11.1 µM (inactive) in [13]; 2.03 µM (active) in [14]; 6.29 µM (active) in [16]; > 119 µM (inactive) in assay [10]; 69.7 µM (inactive) in assay [11]; 35.9 µM (inactive) in [18]. Besides, the CC50 is > 40 µM (active) in assay [15] and > 20 µM (active) in [17].

Take `COC(=O)C1(Cc2ccc(O)cc2)OC(=O)C(O)=C1c1ccc(O)cc1` (centres undefined): the results for the IC50 in [1] and in assay [2] were > 67.5 µM (inactive) and 56.1 µM (inactive), respectively.

For `Cc1ccc(S(=O)(=O)Nc2ccccc2C(=O)NCC2CCCO2)cc1` (centres undefined), the AC50 in assay [19] is 44.8 µM (active).

As to `CSCc1ccc(C(=O)Nc2cc(C)cc(C)c2)cc1`, the concentration at half-maximal activity (AC50) in [3] was 161 µM (active).

For `Cc1ccccc1S(=O)(=O)NC(=Nc1nc2ccccc2s1)c1ccccc1`, in assay [3], the AC50 is 263 µM (active).

On to `COCCNC(=O)C(c1ccc(Cl)cc1)N(Cc1ccco1)C(=O)CCC(=O)Nc1ccccn1` (centres undefined), for which the IC50 in assay [1] and in assay [2] was > 67.5 µM (inactive) in each case.

For `COc1ccc2c3c1O[C@H]1C(=O)CC[C@@]4(O)C(C2)N(CC2CC2)CCC314` (some centres undefined), in assay [20], the half-maximal activity concentration (AC50) was 17.8 µM (inconclusive).

With `CN1[C@@H]2CC[C@H]1C[C@@H](OC(c1ccccc1)c1ccccc1N)C2` (some centres undefined) [AMINOBENZTROPINE], in assay [20], the AC50 is 11.2 µM (inconclusive).

Broadly, the IC50 is the concentration that inhibits the measured activity by half. The AC50 is the concentration giving half of the maximal activity seen. One may read the EC50 as the concentration that produces a half-maximal response. Usually CC50 stands for the concentration at which the toxic effect on the cells reaches its halfway point.
